Measured values taken from US9295629B2, “WNT family-derived peptides and use thereof” (CAREGEN CO., LTD., priority 2011, dated 2016).
Where no end group is shown, it is not given here.

What was measured:
[1] = system: fibronectin; experiment: Fibronectin ELISA in NIH3T3 fibroblasts; assay type: cell-based; details: for fibronectin expression with the lapse of time: NIH3T3, peptide 1 μg/ml, 3, 10, 24 or 48 hr, ELISA (FIG. 7a); for fibronectin expression in the presence of DKK-1: NIH3T3, treated with both DKK-1 protein and peptide, ELISA (FIG. 7b)
Experimental: To verify whether the peptides synthesized in preparation Example 1 enhances the expression of fibronectin as a WNT target protein, NIH3T3 fibroblasts (4×10^3 cells) was added to each well of 96-well plates and cultured under 5% CO2 for 24 hr at 37° C. After 24-hr culture, the medium was changed with a fresh medium without serum and cells were treated with empty sample (for normalization), three peptides synthesized (1 μg/ml) and peptide complex (1 μg/ml) aseptically dissolved in 10% DMSO for 3 hr, 10 hr, 24 hr or 48 hr under the same conditions as described above. After 72 hr incubation, the cell culture was collected and the expression level of fibronectin was measured using Fibronectin ELISA kit (R&D systems, USA).
In addition, after DKK-1 protein was treated and cultured under the same conditions, the expression level of fibronectin was examined.

[2] = system: NIH3T3 fibroblasts; experiment: SRB colorimetric cell growth assay, fibroblasts; assay type: cell-based; details: for growth of fibroblasts, microscope image: NIH3T3, 72 hr, observed under a microscope (FIG. 3b); for effect on the growth of fibroblasts: NIH3T3, peptide 1 ng/ml-10 μg/ml, 72 hr, SRB absorbance at 590 nm (FIG. 2b)
Experimental: (§1) In order to evaluate three peptides prepared in Preparation Examples 1-2 whether they have similar activities of growth factor, SRB (Sulforhodamine B; Sigma-Aldrich) colorimetric assay was carried out using HaCaT kerationcytes (Korean Cell Line Bank) and NIH3T3 fibroblasts (Korean Cell Line Bank) according to Rizzino et al. method (Rizzino, et al. Cancer Res., 48: 4266 (1988)).
(§2) HaCaT ketatinocytes, NIH3T3 fibroblasts, and HHFDPC hair follicle cells (cell science) were cultured in 250 ml-flasks containing DMEM (Dulbecco's Modified Eagle's minimal essential media; Gibco, USA) supplemented with 10% FBS (fetal bovine serum; Sigma). Cells cultured were treated with 1% trypsin solution to detach cells from the bottom of culture flasks and centrifuged to collect cell pellets. After cells were resuspended in DMEM not containing FBS, its aliquot (3×10^3 cells) was added to each well of 96-well plates and cultured under 5% CO2 for 24 hr at 37° C. After 24-hr culture, the medium was changed with a fresh medium without serum and cells were incubated with empty sample (for normalization) and peptides synthesized (1 ng/ml, 10 ng/ml, 100 ng/ml, 1 μg/ml and 10 μg/ml) aseptically dissolved in 10% DMSO for 72 hr under the same conditions as described above. After removing supernatants, cells were fixed with ethanol and then washed three times using PBS (phosphate buffered saline), followed by incubation with SRB solution. Cells were sufficiently washed with 1% acetic acid and observed under a microscope to find living cell condition. In addition, absorbance at 590 nm was measured to analyze cell viability. Meanwhile, after culturing under the same conditions, the tissue was immunostained by an immunohistochemical assay with ki-67 antibody (SantaCruz, USA) and the amount of ki-67 protein as a cell proliferation marker was observed.

[3] = system: β-catenin; experiment: Western blot of β-catenin in HaCaT keratinocytes; assay type: cell-based; details: for expression level / activity of β-catenin: peptide 5 hr, Western blot (FIG. 5a); for β-catenin expression / activity in the presence of DKK-1: with DKK-1 (WNT inhibitor), Western blot (FIG. 5b)
Experimental: (§3) HaCaT kerationcytes cultured for 48 hr were incubated with the peptides synthesized in preparation Example 1 for 5 hr. The phosphorylation level of LRP5, which is the receptor of WNT protein and expression level of β-catenin, which is the signal molecule of WNT protein were examined respectively. The amount of Phopho-LRP5 and β-catenin were measured by Western blot analysis using an antibody against Phopho-LRP5 (Cell signaling) and β-catenin (SantaCruz, USA). In addition, the expression level of LEF-1 transcription factor was also observed, which is enhanced by β-catenin. […] First of all, it was shown that β-catenin activity is observed by treatment with the peptide of the present invention in spite of the presence of DKK-1 as a WNT inhibitor and a β-catenin signaling inhibitor (FIG. 5b). It was also observed that the expression level of LEF-1 transcription factor was increased by the treatment of the present peptides (FIG. 6).

[4] = system: LRP5; experiment: Western blot of Phospho-LRP5 in HaCaT keratinocytes; assay type: cell-based; details: peptide 5 hr, Western blot (FIG. 4)
Experimental: as §3

[5] = system: C57BL/6 mouse back skin; experiment: Mouse hair growth, topical peptide nanosome; assay type: in vivo; details: nanosome topically twice every day for 15 days (FIG. 8)
Experimental: The peptide synthesized in Preparation Example 1 was formulated into nanosome. Afterwards, the back of C57BL/6 mouse was partially removed and then the skin was topically administered with the nanosome twice every day for 15 days.
50 mg of each peptide synthesized in preparation Examples was dissolved in 500 ml of distilled water by sufficient agitation. The peptide solution was mixed with 5 g lecithin, 0.3 ml sodium oleate, 50 ml ethanol and a small amount of oils, and its volume was adjusted with distilled water to 1 L. The resulting solution was subjected to a microfluidizer under high pressure for emulsification, thereby providing nanosomes having about 100-nm size. The nanosomes were prepared to have a final concentration of about 50 ppm and used as ingredients for cosmetics.

[6] = system: HHFDPC hair follicle cells; experiment: SRB colorimetric cell growth assay, hair follicle cells; assay type: cell-based; details: 72 hr; for growth of cells in hair follicles, microscope image: observed under a microscope (FIG. 3c); for effect on the growth of cells in hair follicles: peptide 1 ng/ml-10 μg/ml, SRB absorbance at 590 nm (FIG. 2c)
Experimental: as §2

[7] = system: HaCaT keratinocytes; experiment: SRB colorimetric cell growth assay, keratinocytes; assay type: cell-based; details: 72 hr; for growth of keratinocytes, microscope image: observed under a microscope (FIG. 3a); for effect on the growth of keratinocytes: peptide 1 ng/ml-10 μg/ml, SRB absorbance at 590 nm (FIG. 2a)
Experimental: as §1, §2

Substance | fibronectin expression with the lapse of time [1] | fibronectin expression in the presence of DKK-1 [1] | growth of fibroblasts, microscope image [2] | effect on the growth of fibroblasts [2] | expression level / activity of β-catenin [3] | β-catenin expression / activity in the presence of DKK-1 [3] | phosphorylation level of LRP5 [4] | hair growth on mouse back skin [5] | growth of cells in hair follicles, microscope image [6] | effect on the growth of cells in hair follicles [6] | growth of keratinocytes, microscope image [7] | effect on the growth of keratinocytes [7]
LCCGRGHRTRTQR (cysteine pairing not given here) [peptide-1] | gradually elevated | restored and enhanced | promote the growth | stimulatory effect | enhancement | β-catenin expression in spite of the presence of DKK-1 | enhancement | activity for promoting hair growth | promote the growth | stimulatory effect | promote the growth | stimulatory effect
peptide-2: WNT-derived peptide, amino acid sequence LCCGRGHNAR (WNT-derived peptide 2) | gradually elevated | restored and enhanced | promote the growth | stimulatory effect | enhancement | β-catenin expression in spite of the presence of DKK-1 | enhancement | activity for promoting hair growth | promote the growth | stimulatory effect | promote the growth | stimulatory effect
peptide-3: WNT-derived peptide, amino acid sequence AERRRELCRC (WNT-derived peptide 3) | gradually elevated | restored and enhanced | promote the growth | stimulatory effect | enhancement | β-catenin expression in spite of the presence of DKK-1 | enhancement | activity for promoting hair growth | promote the growth | stimulatory effect | promote the growth | stimulatory effect
peptide-4: WNT-derived peptide, amino acid sequence LCCGRGHNVL (WNT-derived peptide 4) | gradually elevated | restored and enhanced | promote the growth | stimulatory effect | enhancement | β-catenin expression in spite of the presence of DKK-1 | enhancement | activity for promoting hair growth | promote the growth | stimulatory effect | promote the growth | stimulatory effect
